According to patent US12404295B2, “(Hetero)aryl-methyl-thio-beta-D-galactopyranoside derivatives” (Idorsia Pharmaceuticals Ltd, priority 2019, dated 2025):
Read-outs that look alike come from different tables or passages of the source.

How the values were obtained:
[1] = target: human Gal-3 (hGal-3) (Homo sapiens (Human), UniProt P17931); assay: competitive binding assay: biotinylated hGal-3 binding to microplate-adsorbed asialofetuin (ASF)
In short: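 3 h, 4 °C binding step; cold buffer wash; streptavidin-HRP 80 ng/mL, 1 h, 4 °C; ABTS colorimetric read-out. Compounds diluted serially in DMSO. IC50 reported as mean of repeat runs.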

[2] = target: human Gal-1 (hGal-1) (Homo sapiens (Human), UniProt P09382); assay: competitive binding assay: biotinylated hGal-1 binding to microplate-adsorbed asialofetuin (ASF); conditions: Table 15; read-out: IC50 (Galectin-1 inhibition)
In short: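 Spectrophotometric competition readout: after compound and biotinylated hGal-1 (300-1000 ng/mL) sit 3 h at 4° C on adsorbed asialofetuin, streptavidin-peroxidase (1 h, 4° C) and ABTS reveal residual binding. Reported IC50 values are means of repeat runs.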

[3] = Gal-3 inhibition, binding of biotinylated hGal-3 to ASF, mean values, read-out: IC50

Sequence of human Gal-3 (hGal-3) (P17931 whole entry): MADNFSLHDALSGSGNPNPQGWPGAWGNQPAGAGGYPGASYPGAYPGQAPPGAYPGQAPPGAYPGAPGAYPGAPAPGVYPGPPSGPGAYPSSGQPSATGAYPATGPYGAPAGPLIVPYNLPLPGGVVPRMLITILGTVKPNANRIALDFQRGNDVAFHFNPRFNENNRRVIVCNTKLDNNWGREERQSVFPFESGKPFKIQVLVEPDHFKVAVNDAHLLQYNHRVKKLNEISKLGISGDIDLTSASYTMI
Sequence of human Gal-1 (hGal-1) (P09382 whole entry): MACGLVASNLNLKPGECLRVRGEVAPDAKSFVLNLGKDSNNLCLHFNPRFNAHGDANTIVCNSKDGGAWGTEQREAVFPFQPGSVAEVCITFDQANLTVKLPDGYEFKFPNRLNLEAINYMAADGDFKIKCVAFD

| SMILES | IC50 [1, 3] [µM] | IC50 [2] [µM] | IC50 ([1]; Table 10, 2-OMe-Gal inhibitors, read-out: IC50 (Gal-3 inhibition)) [µM] | IC50 ([1]; Table 9, 2-OMe-Gal inhibitors, read-out: IC50 (Gal-3 inhibition)) [µM] |
| --- | --- | --- | --- | --- |
| CO[C@@H]1[C@@H](n2cc(-c3cc(F)c(F)c(F)c3)nn2)[C@@H](O)[C@@H](CO)O[C@H]1SC(c1ccccc1C(F)(F)F)C1(O)CCN(C(=O)NC2CC2)CC1 (stereo partly drawn) [Example 2.49.112.I.] | 0.21 | 0.49 | – | – |
| OC[C@H]1O[C@@H](SC(c2ccccc2)C2CC2)[C@H](O)[C@@H](n2cc(-c3cc(F)c(F)c(F)c3)nn2)[C@H]1O (stereo partly drawn) [Example 2.54.100., (2S,3R,4S,5R,6R)-2-((Cyclopropyl(phenyl)methyl)thio)-6-(hydroxymethyl)-4-(4-(3,4,5-trifluorophenyl)-1H-1,2,3-triazol-1-yl)tetrahydro-2H-pyran-3,5-diol, reference compound] | 3.21 | 61.2 | – | – |
| CCC(O)C(S[C@@H]1O[C@H](CO)[C@H](O)[C@H](n2cc(-c3cc(F)c(F)c(F)c3)nn2)[C@H]1O)c1ccccc1C(F)(F)F (stereo partly drawn) [Example 2.60.112., (2S,3R,4S,5R,6R)-2-((2-Hydroxy-1-(2-(trifluoromethyl)phenyl)butyl)thio)-6-(hydroxymethyl)-4-(4-(3,4,5-trifluorophenyl)-1H-1,2,3-triazol-1-yl)tetrahydro-2H-pyran-3,5-diol] | 0.23 | 3.5 | – | – |
| OC[C@H]1O[C@@H](SC(c2ccccc2C(F)(F)F)C(O)c2ccccc2)[C@H](O)[C@@H](n2cc(-c3cc(F)c(F)c(F)c3)nn2)[C@H]1O (stereo partly drawn) [Example 2.61.112., (2S,3R,4S,5R,6R)-2-((2-Hydroxy-2-phenyl-1-(2-(trifluoromethyl)phenyl)ethyl)thio)-6-(hydroxymethyl)-4-(4-(3,4,5-trifluorophenyl)-1H-1,2,3-triazol-1-yl)tetrahydro-2H-pyran-3,5-diol] | 1.1 | 7.88 | – | – |
| Cc1ccccc1C(O)C(S[C@@H]1O[C@H](CO)[C@H](O)[C@H](n2cc(-c3cc(F)c(F)c(F)c3)nn2)[C@H]1O)c1ccccc1C(F)(F)F (stereo partly drawn) [Example 2.62.112., (2S,3R,4S,5R,6R)-2-((2-Hydroxy-2-(o-tolyl)-1-(2-(trifluoromethyl)phenyl)ethyl)thio)-6-(hydroxymethyl)-4-(4-(3,4,5-trifluorophenyl)-1H-1,2,3-triazol-1-yl)tetrahydro-2H-pyran-3,5-diol] | 1.22 | 11.7 | – | – |
| Cc1conc1C(S[C@@H]1O[C@H](CO)[C@H](O)[C@H](n2cc(-c3cc(F)c(F)c(F)c3)nn2)[C@H]1O)C1(O)CCS(=O)(=O)CC1 (stereo partly drawn) [Example 2.66.120., 4-((((2S,3R,4S,5R,6R)-3,5-Dihydroxy-6-(hydroxymethyl)-4-(4-(3,4,5-trifluorophenyl)-1H-1,2,3-triazol-1-yl)tetrahydro-2H-pyran-2-yl)thio)(4-methylisoxazol-3-yl)methyl)-4-hydroxytetrahydro-2H-thiopyran 1,1-dioxide] | 0.14 | 0.33 | – | – |
| Cc1conc1[C@@H](S[C@@H]1O[C@H](CO)[C@H](O)[C@H](n2cc(-c3cc(F)c(F)c(F)c3)nn2)[C@H]1O)C1(O)CCS(=O)(=O)CC1 [Example 2.66.120R., 4-((R)-(((2S,3R,4S,5R,6R)-3,5-Dihydroxy-6-(hydroxymethyl)-4-(4-(3,4,5-trifluorophenyl)-1H-1,2,3-triazol-1-yl)tetrahydro-2H-pyran-2-yl)thio)(4-methylisoxazol-3-yl)methyl)-4-hydroxytetrahydro-2H-thiopyran 1,1-dioxide] | 0.03 | 0.07 | – | – |
| CO[C@@H]1[C@@H](n2cc(-c3cc(F)c(F)c(F)c3)nn2)[C@@H](O)[C@@H](CO)O[C@H]1S[C@H](c1nocc1C)C1(O)CCS(=O)(=O)CC1 [Example 2.66.120R.I., 4-Hydroxy-4-((R)-(((2S,3R,4S,5R,6R)-5-hydroxy-6-(hydroxymethyl)-3-methoxy-4-(4-(3,4,5-trifluorophenyl)-1H-1,2,3-triazol-1-yl)tetrahydro-2H-pyran-2-yl)thio)(4-methylisoxazol-3-yl)methyl)tetrahydro-2H-thiopyran 1,1-dioxide] | – | 0.58 | 0.07 | – |
| Cc1conc1[C@H](S[C@@H]1O[C@H](CO)[C@H](O)[C@H](n2cc(-c3cc(F)c(F)c(F)c3)nn2)[C@H]1O)C1(O)CCS(=O)(=O)CC1 [Example 2.66.120S., 4-((S)-(((2S,3R,4S,5R,6R)-3,5-Dihydroxy-6-(hydroxymethyl)-4-(4-(3,4,5-trifluorophenyl)-1H-1,2,3-triazol-1-yl)tetrahydro-2H-pyran-2-yl)thio)(4-methylisoxazol-3-yl)methyl)-4-hydroxytetrahydro-2H-thiopyran 1,1-dioxide] | 4.57 | 24.1 | – | – |
| Cc1cccnc1[C@@H](S[C@@H]1O[C@H](CO)[C@H](O)[C@H](n2cc(-c3cc(F)c(F)c(F)c3)nn2)[C@H]1O)C1(O)CCS(=O)(=O)CC1 [Example 2.66.126R., 4-((R)-(((2S,3R,4S,5R,6R)-3,5-Dihydroxy-6-(hydroxymethyl)-4-(4-(3,4,5-trifluorophenyl)-1H-1,2,3-triazol-1-yl)tetrahydro-2H-pyran-2-yl)thio)(3-methylpyridin-2-yl)methyl)-4-hydroxytetrahydro-2H-thiopyran 1,1-dioxide] | 0.02 | 0.17 | – | – |
| CO[C@@H]1[C@@H](n2cc(-c3cc(F)c(F)c(F)c3)nn2)[C@@H](O)[C@@H](CO)O[C@H]1S[C@H](c1ncccc1C)C1(O)CCS(=O)(=O)CC1 [Example 2.66.126R.I., 4-Hydroxy-4-((R)-(((2S,3R,4S,5R,6R)-5-hydroxy-6-(hydroxymethyl)-3-methoxy-4-(4-(3,4,5-trifluorophenyl)-1H-1,2,3-triazol-1-yl)tetrahydro-2H-pyran-2-yl)thio)(3-methylpyridin-2-yl)methyl)tetrahydro-2H-thiopyran 1,1-dioxide] | – | 0.09 | – | 0.06 |
| Cc1cccnc1[C@H](S[C@@H]1O[C@H](CO)[C@H](O)[C@H](n2cc(-c3cc(F)c(F)c(F)c3)nn2)[C@H]1O)C1(O)CCS(=O)(=O)CC1 [Example 2.66.126S., 4-((S)-(((2S,3R,4S,5R,6R)-3,5-Dihydroxy-6-(hydroxymethyl)-4-(4-(3,4,5-trifluorophenyl)-1H-1,2,3-triazol-1-yl)tetrahydro-2H-pyran-2-yl)thio)(3-methylpyridin-2-yl)methyl)-4-hydroxytetrahydro-2H-thiopyran 1,1-dioxide] | 2 | 16.5 | – | – |

Further lines, results first:

| IC50 [1, 3] [µM] | IC50 [2] [µM] | IC50 ([1]; Table 10, 2-OMe-Gal inhibitors, read-out: IC50 (Gal-3 inhibition)) [µM] | IC50 ([1]; Table 9, 2-OMe-Gal inhibitors, read-out: IC50 (Gal-3 inhibition)) [µM] | SMILES |
| --- | --- | --- | --- | --- |
| 0.19 | 0.4 | – | – | CO[C@@H]1[C@@H](n2cc(-c3cc(F)c(F)c(F)c3)nn2)[C@@H](O)[C@@H](CO)O[C@H]1SC(c1ccccc1C(F)(F)F)C1(O)CCN(C(C)=O)CC1 (stereo partly drawn) [Example 2.48.112.I., 1-(4-Hydroxy-4-((((2S,3R,4S,5R,6R)-5-hydroxy-6-(hydroxymethyl)-3-methoxy-4-(4-(3,4,5-trifluorophenyl)-1H-1,2,3-triazol-1-yl)tetrahydro-2H-pyran-2-yl)thio)(2-(trifluoromethyl)phenyl)methyl)piperidin-1-yl)ethan-1-one] |
| 0.05 | 0.16 | – | – | O=C(NC1CC1)N1CCC(O)([C@H](S[C@@H]2O[C@H](CO)[C@H](O)[C@H](n3cc(-c4cc(F)c(F)c(F)c4)nn3)[C@H]2O)c2ccccc2C(F)(F)F)CC1 [Example 2.49.112R., N-Cyclopropyl-4-((R)-(((2S,3R,4S,5R,6R)-3,5-dihydroxy-6-(hydroxymethyl)-4-(4-(3,4,5-trifluorophenyl)-1H-1,2,3-triazol-1-yl)tetrahydro-2H-pyran-2-yl)thio)(2-(trifluoromethyl)phenyl)methyl)-4-hydroxypiperidine-1-carboxamide] |
| 3.06 | 12.1 | – | – | O=C(NC1CC1)N1CCC(O)([C@@H](S[C@@H]2O[C@H](CO)[C@H](O)[C@H](n3cc(-c4cc(F)c(F)c(F)c4)nn3)[C@H]2O)c2ccccc2C(F)(F)F)CC1 [Example 2.49.112S., N-Cyclopropyl-4-((S)-(((2S,3R,4S,5R,6R)-3,5-dihydroxy-6-(hydroxymethyl)-4-(4-(3,4,5-trifluorophenyl)-1H-1,2,3-triazol-1-yl)tetrahydro-2H-pyran-2-yl)thio)(2-(trifluoromethyl)phenyl)methyl)-4-hydroxypiperidine-1-carboxamide] |
| 0.08 | 0.37 | – | – | COC(=O)N1CCC(O)([C@H](S[C@@H]2O[C@H](CO)[C@H](O)[C@H](n3cc(-c4cc(F)c(F)c(F)c4)nn3)[C@H]2O)c2ccccc2C(F)(F)F)CC1 [Example 2.50.112R., Methyl 4-((R)-(((2S,3R,4S,5R,6R)-3,5-dihydroxy-6-(hydroxymethyl)-4-(4-(3,4,5-trifluorophenyl)-1H-1,2,3-triazol-1-yl)tetrahydro-2H-pyran-2-yl)thio)(2-(trifluoromethyl)phenyl)methyl)-4-hydroxypiperidine-1-carboxylate] |
| 7.7 | 15.8 | – | – | COC(=O)N1CCC(O)([C@@H](S[C@@H]2O[C@H](CO)[C@H](O)[C@H](n3cc(-c4cc(F)c(F)c(F)c4)nn3)[C@H]2O)c2ccccc2C(F)(F)F)CC1 [Example 2.50.112S., Methyl 4-((S)-(((2S,3R,4S,5R,6R)-3,5-dihydroxy-6-(hydroxymethyl)-4-(4-(3,4,5-trifluorophenyl)-1H-1,2,3-triazol-1-yl)tetrahydro-2H-pyran-2-yl)thio)(2-(trifluoromethyl)phenyl)methyl)-4-hydroxypiperidine-1-carboxylate] |
| 0.08 | 0.35 | – | – | CO[C@@H]1[C@@H](n2cc(-c3cc(F)c(F)c(F)c3)nn2)[C@@H](O)[C@@H](CO)O[C@H]1SC(c1ccccc1C(F)(F)F)C1(O)CCN(S(=O)(=O)C2CC2)CC1 (stereo partly drawn) [Example 2.51.112.I., 1-(Cyclopropylsulfonyl)-4-((((2S,3R,4S,5R,6R)-5-hydroxy-6-(hydroxymethyl)-3-methoxy-4-(4-(3,4,5-trifluorophenyl)-1H-1,2,3-triazol-1-yl)tetrahydro-2H-pyran-2-yl)thio)(2-(trifluoromethyl)phenyl)methyl)piperidin-4-ol] |
